# Measurements: US11135236B2, “Retinoic acid receptor gamma agonists to attenuate anthracycline-induced cardiotoxicity” (Northwestern University, priority 2018, dated 2021)
# Legend:
# MCF7 = assay: breast cancer cell viability after 72 h of doxorubicin and RARG agonists co-treatment; format: cell-based, human; settings: MCF7, doxorubicin 72 h, Vehicle (no agonist)
# Method: (§1) 384-well plate-based cell viability, caspase 3/7 activity, and reactive oxygen species (ROS) assays. […] Luminescence was measured using a VarioSkan Lux Multi-Mode Reader (Thermo Scientific) with an integration time of 0.25 sec. 10 μM staurosporine (MedChemExpress) was used as a positive control. […] 10 μM staurosporine and 50 μM menadione (both MedChemExpress) was used as a positive control, respectively. Data were analyzed using Prism 7.0 software (GraphPad) using standard dose-response guidelines.
# Breast cancer cell lines. Four human breast cancer cell lines were used, MCF7 (adenocarcinoma, ATCC HTB-22) and Hs 578T (carcinsarcoma, ATCC HTB-126) both cultured in RPMI 1640 (Corning) with 10% FBS (Opti-Gold, GenDEPOT), MDA-MB-231 (adenocarcinoma, ATCC HTB-26) and MDA-MB-468 (adenocarcinoma, ATCC HTB-131) both cultured in DMEM (Corning) with 10% FBS. All cells were cultured on uncoated tissue culture plates (Greiner) and passaged with TrypLE Express (Gibco).
# RARG-OE hiPSC-CMs [1] = assay: caspase 3 and 7 activity after 24 h doxorubicin (Caspase 3/7-Glo); format: cell-based, human
# hiPSC-CMs [2] = assay: DNA damage by γH2AX staining; format: cell-based, human; settings: patient hiPSC-CMs, 24 h doxorubicin
# Method: Immunofluorescent staining. hiPSCs were dissociated with 0.5 mM EDTA and plated onto Matrigel-coated Nunc Lab-Tek II 8-chamber slides in E8 medium for three days (E8Y for the first 24 h). Cells were fixed, permeabilized, and stained for POU5F1, SSEA4, SOX2, TRA-1-60 with the PSC 4-Marker Immunocytochemistry Kit (Invitrogen) according to manufacturer's instructions. Cardiomyocytes were dissociated with Liberase TH (as above) and plated onto Matrigel-coated No 1.5 coverslips as previously described and allowed to adhere and spread for 4 days. Cells were fixed with 4% paraformaldehyde (Electron Microscopy Services) in DPBS for 15 min at RT, permeabilized with 1% saponin (MilliporeSigma) in DPBS for 15 min at RT, blocked with 3% bovine serum albumin (BSA, MilliporeSigma) in DPBS for 30 min at RT, and stained overnight in 3% BSA/DPBS at 4° C. with 1:200 polyclonal rabbit IgG anti-TNNT2 (Abcam, ab45932), 1:500 monoclonal mouse IgG1 anti-ACTN2 (Sigma, A7811), 1:200 monoclonal rabbit IgG RARG (Abcam, ab187159), or 1:200 monoclonal mouse IgG1 γH2AX (MilliporeSigma, 05-636). […]
# Flow cytometry-based DNA damage assay. […] Cells were analyzed using a CytoFLEX (Beckman Coulter) with CytExpert 2.0 software and Prism 7.0 software (GraphPad).
# RARG-OE hiPSC-CMs [3] = assay: hiPSC-CM cell viability after 72 h doxorubicin (CellTiter-Glo); format: cell-based, human
# Method: as §1
# RARG-WT hiPSC-CMs [4] = assay: as above; format: cell-based, human
# Method: as §1
# RARG-KO hiPSC-CMs = assay: caspase 3 and 7 activity after 24 h doxorubicin (Caspase 3/7-Glo); format: cell-based, human
# Method: as §1
# RARG-WT hiPSC-CMs [5] = assay: as above; format: cell-based, human
# Method: as §1
# hiPSC-CMs [6] = assay: RNA-seq gene expression analysis of hiPSC-CMs after doxorubicin; settings: 1 μM doxorubicin, 24 h
# Source text: RNA-seq gene expression analysis. […] RNA was extracted using TRI Reagent and Direct-zol RNA microprep kit (both Zymo) including on-column DNase digestion to remove genomic DNA. Samples were quantified using an Agilent 2100 Bioanalyzer and passed QC. Library preparation was done using a TruSeq RNA v2 kit (Illumina) and sequencing with NextSeq 500 instrument (Illumina) by Northwestern's NuSeq core facility, generating ˜40 million single-end 75 bp reads for each sample. Reads were mapped to the GRCh38 reference human genome using Subread software (Liao et al., 2013). Gene expression levels and exon usage were estimated using featureCounts function in the Subread software (Liao et al., 2013). Differential gene expression analysis was done using Deseq2 package (Love et al., 2014) and R (v3.3.3).
# control hiPSC-CMs = assay: hiPSC-CM cell viability after 72 h doxorubicin (CellTiter-Glo); format: cell-based, human
# Method: as §1
smiles,measurement,setting,value
COc1cccc2c1C(=O)c1c(O)c3c(c(O)c1C2=O)C[C@@](O)(C(=O)CO)C[C@@H]3O[C@H]1C[C@H](N)[C@H](O)[C@H](C)O1 [doxorubicin],LD50,MCF7,0.490 µM
same,"LD50, caspase 3 and 7 activity",RARG-OE hiPSC-CMs [1],1.83 µM
same,DNA damage (γH2AX),hiPSC-CMs [2],concentration-dependent increase in DNA damage
same,"LD50, cell viability",RARG-OE hiPSC-CMs [3],2.724 µM
same,"LD50, cell viability",RARG-WT hiPSC-CMs [4],2.061 µM
same,"LD50, caspase 3 and 7 activity",RARG-KO hiPSC-CMs,0.314 µM
same,"LD50, caspase 3 and 7 activity",RARG-WT hiPSC-CMs [5],0.683 µM
same,Log2fc AC009014.3,hiPSC-CMs [6],5.25
same,Log2fc AC010136.2,hiPSC-CMs [6],−3.13
same,Log2fc ADCYAP1R1,hiPSC-CMs [6],6.25
same,Log2fc AL591893.1,hiPSC-CMs [6],6.49
same,Log2fc BUB1B,hiPSC-CMs [6],−2.89
same,Log2fc C11orf87,hiPSC-CMs [6],−3.03
same,Log2fc CA7,hiPSC-CMs [6],5.41
same,Log2fc CAV3,hiPSC-CMs [6],−3.53
same,Log2fc CCDC60,hiPSC-CMs [6],4.98
same,Log2fc CCDC178,hiPSC-CMs [6],5.45
same,Log2fc CENPA,hiPSC-CMs [6],−2.97
same,Log2fc CENPE,hiPSC-CMs [6],−3.10
same,Log2fc CENPI,hiPSC-CMs [6],−3.23
same,Log2fc CHI3L2,hiPSC-CMs [6],5.04
same,Log2fc CLCA2,hiPSC-CMs [6],5.42
same,Log2fc CMB9.22P13.2,hiPSC-CMs [6],4.99
same,Log2fc CRTAC1,hiPSC-CMs [6],5.32
same,Log2fc CSTA,hiPSC-CMs [6],5.15
same,Log2fc CTD.2083E4.7,hiPSC-CMs [6],−3.85
same,Log2fc CYP2J2,hiPSC-CMs [6],−2.82
same,Log2fc DAND5,hiPSC-CMs [6],−4.17
same,Log2fc DIRAS2,hiPSC-CMs [6],−3.30
same,Log2fc DOK7,hiPSC-CMs [6],−3.42
same,Log2fc DORAS1,hiPSC-CMs [6],−2.90
same,Log2fc EN2,hiPSC-CMs [6],4.93
same,Log2fc ETV7,hiPSC-CMs [6],6.04
same,Log2fc FABP5P3,hiPSC-CMs [6],4.97
same,Log2fc FAM196A,hiPSC-CMs [6],6.36
same,Log2fc FBXL22,hiPSC-CMs [6],−2.80
same,Log2fc FBXO40,hiPSC-CMs [6],−2.86
same,Log2fc FOXD3,hiPSC-CMs [6],5.31
same,Log2fc FUT1,hiPSC-CMs [6],−2.91
same,Log2fc GCK,hiPSC-CMs [6],−3.14
same,Log2fc GDNF,hiPSC-CMs [6],5.54
same,Log2fc GPR87,hiPSC-CMs [6],6.48
same,Log2fc GRHL3,hiPSC-CMs [6],5.45
same,Log2fc HIST1H2AG,hiPSC-CMs [6],5.29
same,Log2fc HIST1H2AI,hiPSC-CMs [6],5.70
same,Log2fc HIST1H2BF,hiPSC-CMs [6],6.22
same,Log2fc HIST1H2BG,hiPSC-CMs [6],4.94
same,Log2fc HIST1H3A,hiPSC-CMs [6],5.14
same,Log2fc HIST1H3H,hiPSC-CMs [6],5.59
same,Log2fc HIST1H3J,hiPSC-CMs [6],5.16
same,Log2fc HIST1H4B,hiPSC-CMs [6],5.29
same,Log2fc HPR,hiPSC-CMs [6],−3.01
same,Log2fc HRK,hiPSC-CMs [6],−3.01
same,Log2fc IGFL3,hiPSC-CMs [6],5.18
same,Log2fc INSM1,hiPSC-CMs [6],4.97
same,Log2fc KCNK3,hiPSC-CMs [6],−3.07
same,Log2fc KCNK10,hiPSC-CMs [6],6.80
same,Log2fc KIF18B,hiPSC-CMs [6],−2.86
same,Log2fc LINC01164,hiPSC-CMs [6],4.96
same,Log2fc LINC01224,hiPSC-CMs [6],−3.31
same,Log2fc LINC01489,hiPSC-CMs [6],−3.45
same,Log2fc LRRC10,hiPSC-CMs [6],−3.05
same,Log2fc LRRC14B,hiPSC-CMs [6],−4.13
same,Log2fc MIR145,hiPSC-CMs [6],−3.74
same,Log2fc NEIL3,hiPSC-CMs [6],−2.89
same,Log2fc NFE2,hiPSC-CMs [6],−3.03
same,Log2fc NHLH2,hiPSC-CMs [6],7.10
same,Log2fc NKX1.2,hiPSC-CMs [6],5.72
same,Log2fc NMUR1,hiPSC-CMs [6],−2.85
same,Log2fc NOTO,hiPSC-CMs [6],5.13
same,Log2fc NPBWR1,hiPSC-CMs [6],5.06
same,Log2fc NUF2,hiPSC-CMs [6],−2.87
same,Log2fc PAX5,hiPSC-CMs [6],6.11
same,Log2fc PEG13,hiPSC-CMs [6],−3.16
same,Log2fc POU3F1,hiPSC-CMs [6],7.21
same,Log2fc PRSS42,hiPSC-CMs [6],−2.89
same,Log2fc PRSS44,hiPSC-CMs [6],−3.02
same,Log2fc RP1.34B20.4,hiPSC-CMs [6],5.94
same,Log2fc RP1.46F2.3,hiPSC-CMs [6],−3.03
same,Log2fc RP3.326I13.1,hiPSC-CMs [6],5.19
same,Log2fc RP3.412A9.12,hiPSC-CMs [6],−2.87
same,Log2fc RP4.794I6.4,hiPSC-CMs [6],5.33
same,Log2fc RP5.1139B12.4,hiPSC-CMs [6],−3.80
same,Log2fc RP5.1148A21.3,hiPSC-CMs [6],5.37
same,Log2fc RP5.884C9.2,hiPSC-CMs [6],5.53
same,Log2fc RP11.108M9.3,hiPSC-CMs [6],−4.12
same,Log2fc RP11.1149O23.2,hiPSC-CMs [6],5.86
same,Log2fc RP11.19O2.1,hiPSC-CMs [6],−3.69
same,Log2fc RP11.234B24.2,hiPSC-CMs [6],−2.89
same,Log2fc RP11.529G21.2,hiPSC-CMs [6],5.03
same,Log2fc RP11.712B9.2,hiPSC-CMs [6],5.10
same,Log2fc RPL7P3,hiPSC-CMs [6],−3.03
same,Log2fc SEC14L5,hiPSC-CMs [6],−3.33
same,Log2fc SLC4A11,hiPSC-CMs [6],5.81
same,Log2fc SLC5A1,hiPSC-CMs [6],−2.94
same,Log2fc TFAP2C,hiPSC-CMs [6],4.93
same,Log2fc TGFB111,hiPSC-CMs [6],−2.77
same,Log2fc TMEM72,hiPSC-CMs [6],−2.93
same,Log2fc TMEM88,hiPSC-CMs [6],−2.81
same,Log2fc TMEM158,hiPSC-CMs [6],5.19
same,Log2fc TMEM229B,hiPSC-CMs [6],4.99
same,Log2fc TNFRSF10A,hiPSC-CMs [6],5.25
same,Log2fc UTS2R,hiPSC-CMs [6],−3.09
same,Log2fc XIRP2,hiPSC-CMs [6],−2.88
same,Log2fc ZNF385C.1,hiPSC-CMs [6],−3.34
same,"genes associated with apoptosis, DNA damage, oxidative stress, and doxorubicin resistance",hiPSC-CMs [6]; RNA-seq,significant upregulation
same,genes associated with cardiac function,hiPSC-CMs [6]; RNA-seq,downregulation
same,"half-maximal lethal dose (LD50), cell viability",control hiPSC-CMs,2.622 µM
